In patent US8008074B2, “Compositions and methods for improving bone mass through modulation of receptors of PTH and fragments thereof” (The UAB Research Foundation, priority 2006, dated 2011):

Assays:
β-catenin in osteoblasts [1] = experiment: β-catenin immunostaining of trabecular bone in mice, 28 days PTH; format: in vivo, mouse; settings: for percentage of β-catenin positive osteoblasts: 28 days
Source text: (§1) Immunohistochemical staining of representative sections with antibody against β-catenin at 10× objective and 40× objective counterstained with hematoxylin from either primary spongliosa subjacent to the epiphyseal growth plates or Spongiosa subjacent to diaphyseal hematopoietic bone marrow of different time points after PTH single injection in rats. […] Each value is the mean±SEM of determinations in three independent slides of each animal and three animals of each group. Panels B and C show graphs of the expression of MPK1 mRNA and the ratio of RANKL/OPG as quantified by real-time PCR in cavaria tissue from the same animals. Panel D—Immunohistochemical β-catenin staining of representative sections were counterstained with hematoxylin from metaphyseal area of distal femurs of mice at six weeks of age. (i) vehicle control daily injection for 28 days; (ii) hPTH (1-34) 100 ng/g. b.w daily injection for 28 days; (iii) vehicle control continuous infusion with an osmotic pump; and (iv) hPTH (1-34) continuous infusion at 500 ng/h with an osmotic pump. Panel D is a graph showing the numbers of β-catenin-positive osteoblasts as a percent of total osteoblasts per field that were determined. Each value is the mean±SEM of determinations in three independent slides of each animal and three animals of each group.
(§2) The role of β-catenin in PTH-induced bone formation was then examined. PTH stimulates bone formation when injected daily, i.e. intermittent injection, but causes severe bone loss when infusion continuously. Mice were injected either daily or continuously by infusion with an osmotic pump for 28 days. […] Similar results were obtained in double labeling.

LRP6/Axin binding = experiment: Axin-LRP6 binding immunoprecipitation assay; format: cell-based; settings: HEK 293 cells cotransfected with LRP6, Axin and GSK3β; ligand for 1 hour
Axin = Axin protein levels; format: cell-based; settings: cells overexpressing LRP6
Source text: Binding of Axin to phosphorylated LRP6 leads to rapid degradation. Then inhibition of Axin/LRP6 binding should […] degradation of Axin. Indeed, Axin degradation is reduced by both inhibitors (data not shown). […] PKA and PKC also were examined to determine whether they regulate PTH-induced PTH1R/LRP6 complex formation. […] Apparently, the receptor complex formation is independent of activation of PKA and PKC. Instead, it seems that activation of G protein-mediated PKA and PKC signaling is in parallel with the recruitment of LRP5/6 in PTH signaling. PKA and PKC activity is required for LRP5/6 phosphorylation and Axin/LRP6 binding.
Wnts induce binding of Axin to phosphorylated LRP6, and the membrane-bound Axin undergoes rapid protein dephosphorylation and degradation, which eventually leads to β-catenin stabilization Willert et al., 1999; Yamamoto et al., 1999).

β-catenin in osteoblasts [2] = experiment: β-catenin immunostaining of femur and tibia after single PTH injection in rats; format: in vivo, rat
Source text: as §1
β-Catenin, activated by either Wnt or TGF signaling, stimulates proliferation of osteoprogenitors and bone formation. […] Therefore, the dynamics of β-catenin levels were determined at various time points after a single dose injection of PTH (1-34) in seven-month-old rats. Sections of femur and tibia were immunostained for HE, trichrome, and β-catenin. The first signs of β-catenin expression in osteoblasts appeared at 2 hours after PTH injection, reached a peak at 8 hours, and decreased at 24 hours. […] Specifically, 99.76% of osteoblasts at primary spongliosa subjacent to the epiphyseal growth plates were β-catenin positive, and 89.91% at spongiosa subjacent to diaphyseal hematopoietic bone marrow were β-catenin positive (FIG. 7A).
To further examine whether LRP5/6 mediates PTH-elevated β-catenin levels in vivo, trabecular bone sections were immunostained with the antibody against phosphorylated PPPSP motif. Formalin-fixed tissue sections of 5 μm thickness were deparaffinized in xylene and rehydrated in graded alcohols. Antigen retrieval was achieved by incubating tissue sections in boiling 10 mmol/L citrate buffer (pH 6.0) for 5 minutes in a microwave oven. All sections were then incubated with hydrogen peroxide for 5 minutes. Subsequently, sections were incubated with the primary antibodies against β-catenin or LRP6 1490 for 1 hour at room temperature. After rinsing the primary antibody in T-PBS, antibody detection was accomplished using the Super Sensitive biotin-streptavidin horseradish peroxidase detection kit (Biogenex, San Ramon, Calif.). The diaminobenzidine tetrachloride Super Sensitive substrate kit (Biogenex, San Ramon, Calif.) was used to visualize the antibody-antigen complex. The sections were then counterstained with hematoxylin. Appropriate negative controls, consisting of tissue sections of each case processed without the addition of primary antibody, were prepared along with positive multitissue control sections. Only those cases with greater than 10% immunohistochemical stains were considered as positive. Assessment of the immunohistochemical staining was performed independently by two pathologists. […]

[3] = tested on: Wnt responsive luciferase reporter (TCF4-Luc); experiment: TCF4-Luc luciferase reporter assay in UMR 106 cells; format: cell-based
[4] = Bone formation in mice, daily injection or continuous infusion for 28 days; format: in vivo, mouse
Source text: as §1, §2

[5] = tested on: TGF-β-induced transcription activity; experiment: Smad binding response luciferase reporter (SBE-luc) in 293 cells; format: cell-based; settings: TGF-β 2 ng/ml, 50 nM
Description: A Smad binding response luciferase reporter (SBE-luc) was transfected into 293 cells. TGF-β (2 ng/ml) was added in combination with different doses of PTH (1-34) or cPTH (39-84). Twenty-four hours after transfection, the cells were lysed and the luciferase signal was detected. Luciferase values shown in the figures are representative of transfection experiments performed in triplicate in at least three independent experiments. The relative increased fold of the luciferase activity stimulated by TGF-β in each cell line was calculated.
A Smad binding response luciferase reporter (SBE-luc) was introduced into the multi-cloning site of pcDNA3 (Invitrogen), and the resulting vector was transfected into 293 cells using Lipofectamine Plus reagent (Invitrogen, Cat. No. 10964-013). TGF-β (2 ng/ml) was added in combination with different doses of PTH (1-34) (50 nM) or cPTH (39-84) (50 nM). […] Forty-two hours after transfection, the cells were lysed, and the luciferase signal was detected using the Dual Luciferase assay kit (Promega) according to the manufacturer's instructions.
Luciferase values shown in the figures are representative of transfection experiments performed in triplicate in at least three independent experiments. The relative increased fold of the luciferase activity stimulated by TGF-β in each cell line was calculated.

PTH1R-TβRII interaction = target: T1, PTH1R-TβRII interaction (Homo sapiens, UniProt P37173+Q03431); experiment: YFP protein-fragment complementation assay, TβRII-YFP1 and PTH1R-YFP2; format: cell-based; settings: both constructs expressed; plasma membrane
T1 construct: expressed in transfected cells
Source text: A yellow fluorescent protein (YFP)-based protein-fragment complementation assay (PCA) was employed (Remy et al., 2004). YFP1 fragment was fused into the C-terminal of TβRII. YFP2 fragment was fused into the C-terminal of PTH1R. The PCA strategy was to facilitate visualization of the PTH1R-TβRII interaction through reconstituted YFP in living cells when the interaction brings the complementary fragments of the YFP into close proximity.
The PTH^TMR was then employed in the PCA experiment. […] Almost all the reconstituted YFP associated with PTH^TMR. The observation was further confirmed by the immunostaining of TβRII and PTH1R in the PTH^TMR-treated cells. TβRII, PTH1R, and PTH ligand predominantly colocalize into the same cytoplasmic vesicles (data not shown).

TGFβ/Smad signaling = TGFβ/Smad signaling after PTH pretreatment; format: cell-based; settings: C2C12 cells; TGFβ stimulation
Description: Panel B is a graph showing the decrease in activity from the SBE-luciferase reporter in the presence of PTH and PTH1R.
It has been reported that TGFβ-induced endocytosis of TGFβ/TβRII is mediated by Sara endosome. The response of TβRII to PTH was analyzed to determine whether it is the same as to TGFβ. […] The observation was confirmed by TGFβ-induced interaction between Smad2 and Smad4.

[6] = rats, 8 hours after single injection of PTH (1-34)
[7] = seven-month-old rats, single dose injection of PTH (1-34)

T1 sequence (Q03431 27-593): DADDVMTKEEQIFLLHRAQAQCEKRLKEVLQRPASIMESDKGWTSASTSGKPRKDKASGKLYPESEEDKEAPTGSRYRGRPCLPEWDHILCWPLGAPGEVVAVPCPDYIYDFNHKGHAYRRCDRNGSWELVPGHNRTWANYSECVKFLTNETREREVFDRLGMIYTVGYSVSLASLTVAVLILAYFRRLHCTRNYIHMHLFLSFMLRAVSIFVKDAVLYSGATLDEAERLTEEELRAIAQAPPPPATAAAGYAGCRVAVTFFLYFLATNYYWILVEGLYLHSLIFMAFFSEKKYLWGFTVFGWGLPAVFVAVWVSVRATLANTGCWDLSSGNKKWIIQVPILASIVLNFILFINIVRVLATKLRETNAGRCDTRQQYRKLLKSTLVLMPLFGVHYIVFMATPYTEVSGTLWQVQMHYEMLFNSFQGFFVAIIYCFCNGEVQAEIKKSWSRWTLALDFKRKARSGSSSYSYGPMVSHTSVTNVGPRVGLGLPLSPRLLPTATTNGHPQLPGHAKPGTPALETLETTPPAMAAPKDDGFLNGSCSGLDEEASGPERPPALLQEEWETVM
T1 sequence (P37173 23-567): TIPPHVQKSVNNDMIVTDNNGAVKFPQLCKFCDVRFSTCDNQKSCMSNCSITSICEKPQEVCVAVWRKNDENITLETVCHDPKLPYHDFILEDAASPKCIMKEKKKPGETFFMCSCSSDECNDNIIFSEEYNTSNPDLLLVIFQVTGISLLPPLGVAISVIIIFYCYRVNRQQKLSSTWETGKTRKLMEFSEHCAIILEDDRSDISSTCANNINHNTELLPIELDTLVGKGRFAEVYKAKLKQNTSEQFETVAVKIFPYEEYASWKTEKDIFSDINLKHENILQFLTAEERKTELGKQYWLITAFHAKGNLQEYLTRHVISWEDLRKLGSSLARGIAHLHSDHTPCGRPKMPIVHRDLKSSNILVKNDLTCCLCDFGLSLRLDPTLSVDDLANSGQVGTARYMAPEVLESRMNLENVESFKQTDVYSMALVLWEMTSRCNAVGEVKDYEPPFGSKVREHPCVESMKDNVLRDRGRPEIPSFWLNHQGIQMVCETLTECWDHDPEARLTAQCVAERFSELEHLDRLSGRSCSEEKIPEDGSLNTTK

Substance: PTH (1-34): N-terminal fragment of PTH, amino acids 1-34
- percentage of β-catenin positive osteoblasts (β-catenin in osteoblasts [1]; PTH continuous infusion): 23.54%
- β-catenin in osteoblasts (immunostaining) (β-catenin in osteoblasts [1]; PTH continuous infusion, in comparison with control): reduced the level of β-catenin
- β-catenin in osteoblasts (immunostaining) (β-catenin in osteoblasts [1]; PTH intermittent injection): significantly increased β-catenin in osteoblasts
- percentage of β-catenin positive osteoblasts (β-catenin in osteoblasts [1]; PTH intermittent injection): 96.03%
- levels of β-catenin in osteocytes, osteoclasts, and bone marrow cells (β-catenin in osteoblasts [1]; data not shown): remained barely detectable
- Axin-LRP6 binding (LRP6/Axin binding): stimulated Axin-LRP6 binding
- Axin protein levels (Axin): further downregulated Axin protein levels
- β-catenin positive osteoblasts at primary spongliosa subjacent to the epiphyseal growth plates (β-catenin in osteoblasts [2]; [6]): 99.76%
- β-catenin positive osteoblasts at spongiosa subjacent to diaphyseal hematopoietic bone marrow (β-catenin in osteoblasts [2]; [6]): 89.91%
- first signs of β-catenin expression in osteoblasts after PTH injection (β-catenin in osteoblasts [2]; [7]): 2 h
- peak of β-catenin expression in osteoblasts after PTH injection (β-catenin in osteoblasts [2]; [7]): 8 h
- β-catenin expression in osteoblasts at 24 hours (β-catenin in osteoblasts [2]; seven-month-old rats, single dose injection of PTH (1-34), 24 hours): decreased
- TCF luciferase activity ([3]; 5×10^−7 M of indicated PTH ligands for 12 hours): significantly elevated
- activation of TCF4-Luc reporter ([3]; 10^−7M PTH (1-84), 12 hours): activated the TCF4-Luc reporter
- osteoblast proliferation (BrdU labeling) ([4]; PTH continuous infusion): reduced proliferation
- osteoblast proliferation (BrdU labeling) ([4]; PTH daily injection): stimulated
- mineralization in the trabecular and cortical bone matrix (von Kossa) ([4]; PTH intermittent injection, data not shown): increased
- bone mineral density ([4]; continuous infusion with osmotic pump for 28 days (500 ng/h), data not shown): decreased
- bone mineral density ([4]; daily injection for 28 days (100 ng/g b.w), data not shown): significantly increased
- osteoblast numbers per square millimeter tissue area (N. Ob/T.Ar) ([4]; primary spongiosa of femur, data not shown): increased
- effect on TGF-β-induced transcription activity (SBE-luc) [5]: inhibited TGF-β-induced transcription activity

Substance: TGF-β1: TGF-β ligand used as stimulus and comparator
- YFP fluorescence from TβRII-YFP1 and PTH1R-YFP2 (PTH1R-TβRII interaction): did not show such an effect
- phosphorylation of Smad2 (TGFβ/Smad signaling): activated
